Patent US8598232B2, “Process for the preparation of non-genotoxic diacetylrhein (diacerein) and formulations comprising non-genotoxic diacetylrhein” (Evultis SA, priority 2008, dated 2013)
Structures can show the parent of a compound that is named as a salt.

Experiment: solubility in water of the potassium salt of Diacerein
Format: physicochemical
Details: in water at neutral pH (pH=7)
Procedure: Type A Process: The first step of the process (a.) is to salify the raw Diacerein to obtain a salt of Diacerein which is soluble in water. The water soluble salt of Diacerein is preferably an inorganic salt of Diacerein, more preferably a salt of Diacerein with an alkali metal. In a preferred embodiment, the salt of Diacerein is a potassium salt of Diacerein or a sodium salt of Diacerein. The solubility of potassium salt of Diacerein is around 1 g/50 ml of water at neutral pH (pH=7).

Q: With `CC(=O)Oc1cccc2c1C(=O)c1c(OC(C)=O)cc(C(=O)O)cc1C2=O` [potassium salt of Diacerein, 1,8-diacetoxy-3-carboxyanthraquinone] as the compound, how does the solubility read?
A: around 1 g/50 ml
